Test results taken from publication PMC3914206.

Legend:
Assay type in all cases: binding
Conditions in all cases: Compound Concentration 10 µM
[1] = target: T1, panel of 442 kinases (Homo sapiens, UniProt Q8N4C8)
T1 construct: purchased KINOMEscan
Excerpt: (§1) We assessed the selectivity of members of this scaffold using the KINOMEscan methodology across a near comprehensive panel of 442 kinases [[18,27]].

[2] = target: T2, panel of 442 kinases (Homo sapiens, UniProt P36896)
T2 construct: purchased KINOMEscan
T2 sequence (P36896 24-505): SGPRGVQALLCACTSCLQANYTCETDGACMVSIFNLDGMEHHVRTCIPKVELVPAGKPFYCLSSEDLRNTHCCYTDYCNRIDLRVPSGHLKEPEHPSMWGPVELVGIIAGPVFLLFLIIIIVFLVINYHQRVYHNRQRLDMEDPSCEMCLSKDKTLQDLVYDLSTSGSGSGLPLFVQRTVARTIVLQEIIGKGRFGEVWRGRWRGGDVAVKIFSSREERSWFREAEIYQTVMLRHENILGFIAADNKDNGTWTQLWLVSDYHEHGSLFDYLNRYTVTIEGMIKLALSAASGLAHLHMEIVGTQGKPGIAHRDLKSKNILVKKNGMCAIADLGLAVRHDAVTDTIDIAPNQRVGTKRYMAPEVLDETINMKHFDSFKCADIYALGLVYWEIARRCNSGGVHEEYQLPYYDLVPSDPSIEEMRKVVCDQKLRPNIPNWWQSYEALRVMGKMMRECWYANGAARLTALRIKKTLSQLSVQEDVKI
Excerpt: as §1

[3] = target: T3, panel of 442 kinases (Homo sapiens, UniProt Q15831)
T3 construct: purchased KINOMEscan
T3 sequence (Q15831 1-433): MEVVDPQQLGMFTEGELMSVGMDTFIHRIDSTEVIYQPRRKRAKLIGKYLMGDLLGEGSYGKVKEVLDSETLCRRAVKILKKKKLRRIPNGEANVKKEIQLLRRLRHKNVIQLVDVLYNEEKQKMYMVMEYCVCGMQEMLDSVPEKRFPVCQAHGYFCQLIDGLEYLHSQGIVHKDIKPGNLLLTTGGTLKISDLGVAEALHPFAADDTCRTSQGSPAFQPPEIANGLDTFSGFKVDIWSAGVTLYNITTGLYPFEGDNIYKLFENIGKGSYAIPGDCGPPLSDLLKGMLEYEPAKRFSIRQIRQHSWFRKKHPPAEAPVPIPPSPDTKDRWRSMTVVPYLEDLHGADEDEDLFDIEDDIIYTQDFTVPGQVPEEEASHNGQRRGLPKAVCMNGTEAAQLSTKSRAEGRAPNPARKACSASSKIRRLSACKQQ
Excerpt: as §1

T1 sequence (Q8N4C8 whole entry): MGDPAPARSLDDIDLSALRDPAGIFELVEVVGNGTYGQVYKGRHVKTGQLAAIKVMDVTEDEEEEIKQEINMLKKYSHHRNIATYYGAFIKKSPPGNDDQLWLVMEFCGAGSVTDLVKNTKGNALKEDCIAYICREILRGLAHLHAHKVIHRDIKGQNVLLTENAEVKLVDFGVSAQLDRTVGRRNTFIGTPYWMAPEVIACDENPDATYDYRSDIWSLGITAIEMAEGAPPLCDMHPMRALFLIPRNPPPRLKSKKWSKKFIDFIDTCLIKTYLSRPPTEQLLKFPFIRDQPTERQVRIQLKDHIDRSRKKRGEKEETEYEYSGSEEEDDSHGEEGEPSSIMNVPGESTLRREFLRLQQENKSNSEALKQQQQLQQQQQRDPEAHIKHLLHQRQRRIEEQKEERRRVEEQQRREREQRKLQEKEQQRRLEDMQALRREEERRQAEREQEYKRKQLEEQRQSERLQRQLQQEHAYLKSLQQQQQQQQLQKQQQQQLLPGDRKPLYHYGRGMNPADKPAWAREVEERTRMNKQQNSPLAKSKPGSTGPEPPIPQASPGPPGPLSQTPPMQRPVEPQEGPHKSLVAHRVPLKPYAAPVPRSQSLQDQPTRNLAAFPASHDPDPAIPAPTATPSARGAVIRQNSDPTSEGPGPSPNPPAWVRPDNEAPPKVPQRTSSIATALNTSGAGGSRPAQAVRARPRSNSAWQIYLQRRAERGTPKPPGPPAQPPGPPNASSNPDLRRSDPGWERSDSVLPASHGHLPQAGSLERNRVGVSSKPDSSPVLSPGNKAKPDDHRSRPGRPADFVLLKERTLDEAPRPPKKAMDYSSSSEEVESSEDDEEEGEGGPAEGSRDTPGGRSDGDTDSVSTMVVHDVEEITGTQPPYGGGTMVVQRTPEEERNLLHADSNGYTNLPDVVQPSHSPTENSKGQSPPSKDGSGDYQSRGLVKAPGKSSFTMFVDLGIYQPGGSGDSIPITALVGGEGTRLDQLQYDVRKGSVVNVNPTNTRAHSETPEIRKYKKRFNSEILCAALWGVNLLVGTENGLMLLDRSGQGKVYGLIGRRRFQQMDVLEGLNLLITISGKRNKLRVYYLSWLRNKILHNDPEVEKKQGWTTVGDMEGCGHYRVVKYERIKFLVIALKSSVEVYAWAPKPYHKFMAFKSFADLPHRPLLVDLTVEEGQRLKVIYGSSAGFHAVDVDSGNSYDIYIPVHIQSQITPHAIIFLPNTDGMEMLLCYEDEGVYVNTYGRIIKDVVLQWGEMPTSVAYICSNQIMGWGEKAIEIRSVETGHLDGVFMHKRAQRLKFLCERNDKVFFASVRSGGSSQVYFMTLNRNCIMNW

SMILES | KINOMEscan: MINK [1] | KINOMEscan: ACVR1B [2] | KINOMEscan: LKB1 [3]
COc1cc(C(=O)N2CCC(N3CCN(C)CC3)CC2)ccc1Nc1ncc2c(n1)N1CCc3cccc(c31)C(=O)N2C [Compound 24] | 36 |  | 
CCOc1cc(C(=O)N2CCC(N3CCN(C)CC3)CC2)ccc1Nc1ncc2c(n1)N(C1CCCC1)c1ccccc1C(=O)N2C [Compound 26] | 100 | 100 | 100
COc1cc(C(=O)N2CCC(N3CCN(C)CC3)CC2)ccc1Nc1ncc2c(n1)N(C1CCCC1)c1ccccc1C(=O)N2C [Compound 25, 11-cyclopentyl-2-((2-methoxy-4-(4-(4-methylpiperazin-1-yl)piperidine-1-carbonyl)phenyl)amino)-5-methyl-5H-benzo[e]pyrimido[5,4-b][1,4]diazepin-6(11H)-one] | 100 | 97 | 82
COc1cc(C(=O)N2CCC(N3CCN(C)CC3)CC2)ccc1Nc1ncc2c(n1)N(C)c1ccccc1C(=O)N2C [15 (LRRK2-IN-1)] | 77 | 100 | 96
